According to US20230158006A1, “USE OF DIRECT THROMBIN INHIBITORS IN THE TREATMENT OF NEURODEGENERATIVE DISEASES” (priority 2020, published 2023):
“Also recorded” adds a separate entry of the source.

Legend:
[1] = test system: HIF-1a, thrombin, IL-6, MCP-1, MMP2 mRNA; test: Real time PCR of brain tissue from AD transgenic mice; type: in vivo; details: 100 mg/kg daily for 34 weeks
Protocol: (§1) Administration of thrombin inhibitor to mice and immunofluorescent staining of mice brain sections: Adult wild-type 3×TgAD—LaFerla (control) and 3×TgAD—LaFerla mice were purchased at 8 weeks of age from The Jackson Laboratory (Bar Harbor, Me.). Daily administration of the orally available direct thrombin inhibitor (DTI) dabigatran etexylate (Pradaxa®, Boehringer Ingelheim, Germany) (100 mg/kg) in PBS to AD mice and vehicle to control mice began at 18 weeks of age and continued daily for 34 weeks. DTI was administered in food. To ensure all food, and therefore drug, was consumed while maintaining ad libitum weight, mice were weighed, and food intake monitored daily. All animal procedures were performed in accordance with NIH “Guide for the Care and Use of Laboratory Animals” and Texas Tech University Health Sciences Center Institutional Animal Care and Use Committee (IACUC) guidelines.
(§2) Real-time PCR analysis: RNA from cultured rat brain endothelial cells was prepared using the TRI Reagent RT (Molecular Research Center, Inc., Cincinnati, Ohio), according to manufacturer protocol. […] Fold difference between two samples (relative quantification) was determined by use of the delta-delta method [S1/S2=2−(T1−T2)], where S1 and S2 represent samples 1 and 2, and T1 and T2 represent the threshold cycles of samples 1 and 2, respectively.

[2] = test system: HIF-1a, thrombin, IL-6, MCP-1, MMP2; test: Immunofluorescence of cerebrovascular expression of HIF-1a and inflammatory proteins in AD transgenic mice; type: in vivo; details: 100 mg/kg daily for 34 weeks
Protocol: as §1
Mice were euthanized, and brain tissue fixed with 10% neutral buffered formalin (NBF). The brain was removed and 1 mm blocks of tissue from cerebral cortex were post fixed in 10% NBF for additional 12 h and embedded in paraffin. […] Sections (3 per mouse) were incubated with DAPI solution at room temperature for 25 min and viewed using an Olympus IX71 microscope and quantified with HAMAMATSU imaging software. […]

[3] = test system: TNFa, IL-6, IL-8, MMPs; test: Production of inflammatory proteins from endothelial cells in AD models
[4] = test system: brain oxidative stress; test: Short treatment of transgenic Tg4510 AD mice, brain oxidative stress; type: in vivo; details: non-published results
Protocol: Fifteen-month-old Tg4510 mice (The Jackson Laboratory, Bar Harbor, Me.) treated for one week with vehicle dimethyl sulfoxide (DMSO) (Spectrum Chemicals & Laboratory Products, New Brunswick, N.J.) or Dabigatran (Pradaxa®, Boehringer Ingelheim Pharmaceuticals, Inc., Ridgefield, Conn.) at doses of 100 mg/kg via oral gavage. Wild-type control mice were treated with vehicle for one week. Brains were collected and homogenized and protein expression was evaluated using western blot.

[5] = test system: reactive oxygen species; test: ROS level (DHE) in frontal cortex brain sections of AD transgenic mice; type: in vivo; details: DTI for 34 weeks, p<0.001 vs untreated AD mice
Protocol: Administration of thrombin inhibitor to mice and immunofluorescent staining of mice brain sections: Adult wild-type 3×TgAD—LaFerla (control) and 3×TgAD—LaFerla mice were purchased at 8 weeks of age from The Jackson Laboratory (Bar Harbor, Me.). Daily administration of the orally available direct thrombin inhibitor (DTI) dabigatran etexylate (Pradaxa®, Boehringer Ingelheim, Germany) (100 mg/kg) in PBS to AD mice and vehicle to control mice began at 18 weeks of age and continued daily for 34 weeks. DTI was administered in food. To ensure all food, and therefore drug, was consumed while maintaining ad libitum weight, mice were weighed, and food intake monitored daily. […]
Detection of reactive oxygen species in cell culture and mouse brain tissue sections: Brain endothelial cell cultures were grown on coverslips in 24-well plates, incubated at 37° C. in serum free media with or without dabigatran (DTI, 1 nM) and exposed to hypoxic (6 h, 1% 02) or normoxic (21% 02) conditions. […] Brain sections and cell cultures were incubated with 5 pM of dihydroethidium (DH E) fluorescence dye (Life Technologies, Grand Island, N.Y.; D23107) and Hoechst33342 NucBlue® stain (Life Technologies, R37605) for 30 min in the dark at room temperature. […] Following two washes with PBS, images were captured immediately using an Olympus IX71 microscope and analyzed using HAMAMATSU imaging software. […]

[6] = test system: rat brain endothelial cells; test: Cell survival by MTT assay, brain endothelial cell cultures exposed to hypoxia or normoxia; type: cell-based
Text: (§3) Culture and hypoxic exposure of rat brain endothelial cells: Brain endothelial cell cultures were obtained from rat brain micro-vessels, as previously described (Diglio et al., 1993). The purity of these cultures was confirmed using antibodies to the endothelial cell surface antigen Factor VIII. Endothelial cells used in this study (passages 8-15) were maintained in Dulbecco's modified Eagle's medium (DMEM, Sigma-Aldrich, St. Louis, Mo.) supplemented with 10% fetal bovine serum (FBS), 1% antibiotic/antimycotic, and 2 mM glutamine. Confluent endothelial cell cultures were washed three times with Hank's balanced salt solution (HBSS, Gibco, Grand Island, N.Y.) and then incubated at 37° C. with serum-free DMEM for 6 h under hypoxic (1% 02) or normoxic (21% 02) conditions.
Measurement of cell survival by MTT assay: Cells were washed with phosphate buffer saline (PBS) and incubated with the MTT reagent 3-(4,5-dimethylthiazol-2-yl)-2-5-diphenyl tetrazolium bromide (1:40 dilution) for 5-10 min at 37° C. The cells convert the MTT reagent to formazan which is quantified by colorimetric assay (Cell Titer 95 Aqueous solution cell proliferation assay, Promega, Madison, Wis.). The formazan product was read at 490 nm. The number of control cells, i.e., viable cells not exposed to any treatment, was defined as 100%.
Brain micro-vessel endothelial cell cultures were incubated with the DTI dabigatran (10 pM-100 nM), exposed to hypoxia for 6 h and cell viability measured by MTT assay. There was a modest (19%) but significant (p<0.05) increase in cell survival at 1-10 nM DTI while DTI doses in excess of 100 nM were toxic.

[7] = test system: reactive oxygen species in brain endothelial cell cultures; test: ROS levels (DHE) in cultured brain endothelial cells; type: cell-based, rat; details: for hypoxia-induced increase in ROS generation: 6 h hypoxia, p<0.001; for ROS level, mean signal intensity of DHE stained cells to non-stained cells: DTI 1 nM, mean ± SD
Text: as §3
Detection of reactive oxygen species in cell culture and mouse brain tissue sections: Brain endothelial cell cultures were grown on coverslips in 24-well plates, incubated at 37° C. in serum free media with or without dabigatran (DTI, 1 nM) and exposed to hypoxic (6 h, 1% 02) or normoxic (21% 02) conditions. Sections from frozen brain (10-20 µm thickness) were placed on coverslips in 24-well plates with 0.5 ml of PBS at room temperature. Brain sections and cell cultures were incubated with 5 pM of dihydroethidium (DH E) fluorescence dye (Life Technologies, Grand Island, N.Y.; D23107) and Hoechst33342 NucBlue® stain (Life Technologies, R37605) for 30 min in the dark at room temperature. DHE is a cell permeable compound which reacts with intracellular ROS to form oxyethidium, which emits a bright red color detectable by fluorescent microscopy. Following two washes with PBS, images were captured immediately using an Olympus IX71 microscope and analyzed using HAMAMATSU imaging software.
Brain endothelial cell cultures were incubated in serum-free media or serum free media plus DTI (1 nM) and exposed to hypoxia (1% 02) or normoxic (21% 02) conditions for 6 h. The cells were incubated for 30 min with 5 pM of Dihydroethidium (DHE, red) fluorescent dye and NucBlue stain (blue). ROS generation was assessed by quantitation of signal intensities of DHE stained cells to non-stained cells. Data represent mean signal intensity of DHE stained cells to non-stained cells±SD from at least 3 separate experiments performed in duplicate. ***p<0.001 vs. Control; a p<0.001 vs. Hypoxia.

[8] = test system: HIF-1a, thrombin, IL-6, MCP-1, MMP2 mRNA; test: Real-time PCR of inflammatory gene expression in brain endothelial cells exposed to 6 h hypoxia; type: cell-based, rat; details: 1 nM, p<0.01-0.001, FIG. 1
Text: as §3
as §2, with “respectively. […]” for “respectively.”

SMILES: CCCCCCOC(=O)NC(=N)c1ccc(NCc2nc3cc(C(=O)N(CCC(=O)OCC)c4ccccn4)ccc3n2C)cc1
- RNA levels of HIF-1a, thrombin, IL-6, MCP-1, MMP2 in brain tissue ([1]; p<0.01 to p<0.001, FIG. 3): reduces expression
- RNA levels of HIF-1a, thrombin, IL-6, MCP-1, MMP2 in brain tissue ([1]; p<0.01 to p<0.001, FIG. 3, listed as DTI): decrease in RNA levels
- cerebrovascular expression of HIF-1a, thrombin, IL-6, MCP-1, MMP2 proteins ([2]; FIG. 2): significantly decreases expression
- cerebrovascular expression of HIF-1a, thrombin, IL-6, MCP-1, MMP2 proteins ([2]; FIG. 2, listed as DTI): reduced expression of these proteins
- production of TNFa, IL-6, IL-8, MMPs and other inflammatory proteins from endothelial cells [3]: reducing the production
- brain oxidative stress [4]: lowering brains' oxidative stress
- ROS generation (DHE level) in brain sections ([5]; FIG. 4): inhibited; also recorded: significantly decreases expression
- ROS generation (DHE level) in brain sections ([5]; FIG. 4, listed as DTI): decreased DHE level
- increase in cell survival ([6]; hypoxia 6 h, 1-10 nM DTI, p<0.05): 19%
- DTI doses toxic to cells ([6]; hypoxia 6 h, MTT): > 100 nM
- effect on cell survival under normoxic conditions ([6]; normoxic, doses under 100 nM, data not shown): did not affect cell survival
- hypoxia-induced increase in ROS generation [7]: inhibited
- hypoxia-induced increase in ROS generation ([7]; listed as DTI): blocked
- ROS level, mean signal intensity of DHE stained cells to non-stained cells ([7]; Control + DTI: normoxic (21% O2) 6 h): 0.65±
- ROS level, mean signal intensity of DHE stained cells to non-stained cells ([7]; Hypoxia + DTI: hypoxia (1% O2) 6 h, p<0.001 vs. Hypoxia): 0.92 ± 0.06a
- hypoxia-mediated effects on inflammatory gene expression (HIF-1a, thrombin, IL-6, MCP-1, MMP2 mRNA) [8]: reduced hypoxia-mediated effects on inflammatory gene expression
